Source: PMC9636434, “Discovery of small molecule agonists of the Relaxin Family Peptide Receptor 2” (Communications Biology, 2022)
Values joined by “and” are separate entries in the source; they are usually repeats but may differ in a detail not shown here. Equal entries are not always repeated.

Assays:
human FSHR = target: T1, human FSHR (Homo sapiens, UniProt P23945); experiment: HitHunter cAMP XS+ assay, cAMP Hunter cell line FSHR; type: cell-based; conditions: for RLU: replicates (1),(2)
T1 sequence (P23945 18-695): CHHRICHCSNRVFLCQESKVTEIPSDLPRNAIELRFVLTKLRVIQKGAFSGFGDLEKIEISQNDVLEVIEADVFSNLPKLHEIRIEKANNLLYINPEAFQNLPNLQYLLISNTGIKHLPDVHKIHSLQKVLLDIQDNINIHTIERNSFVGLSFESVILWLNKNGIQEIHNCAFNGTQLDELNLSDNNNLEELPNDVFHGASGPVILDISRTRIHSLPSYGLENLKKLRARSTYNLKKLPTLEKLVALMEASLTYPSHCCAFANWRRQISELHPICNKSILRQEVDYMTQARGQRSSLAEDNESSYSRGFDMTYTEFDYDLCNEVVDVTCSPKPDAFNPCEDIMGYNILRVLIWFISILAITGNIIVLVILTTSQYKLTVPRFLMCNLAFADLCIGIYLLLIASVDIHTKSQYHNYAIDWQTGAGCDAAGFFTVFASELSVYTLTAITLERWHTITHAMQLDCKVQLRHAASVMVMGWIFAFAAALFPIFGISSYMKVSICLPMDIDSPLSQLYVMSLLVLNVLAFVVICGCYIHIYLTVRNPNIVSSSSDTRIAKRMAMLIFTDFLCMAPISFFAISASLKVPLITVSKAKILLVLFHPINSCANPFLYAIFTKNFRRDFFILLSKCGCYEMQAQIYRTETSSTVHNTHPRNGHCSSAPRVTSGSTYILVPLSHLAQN
From the text: (§1) Results are reported as raw RLU values and represent the
(§2) mean ± SEM of 2 technical replicates.

human TSHR = human TSHR (Homo sapiens, UniProt P16473); experiment: HitHunter cAMP XS+ assay, cAMP Hunter cell line TSHR; type: cell-based; conditions: for RLU: replicates (1),(2)
Chain of human TSHR (P16473 21-764): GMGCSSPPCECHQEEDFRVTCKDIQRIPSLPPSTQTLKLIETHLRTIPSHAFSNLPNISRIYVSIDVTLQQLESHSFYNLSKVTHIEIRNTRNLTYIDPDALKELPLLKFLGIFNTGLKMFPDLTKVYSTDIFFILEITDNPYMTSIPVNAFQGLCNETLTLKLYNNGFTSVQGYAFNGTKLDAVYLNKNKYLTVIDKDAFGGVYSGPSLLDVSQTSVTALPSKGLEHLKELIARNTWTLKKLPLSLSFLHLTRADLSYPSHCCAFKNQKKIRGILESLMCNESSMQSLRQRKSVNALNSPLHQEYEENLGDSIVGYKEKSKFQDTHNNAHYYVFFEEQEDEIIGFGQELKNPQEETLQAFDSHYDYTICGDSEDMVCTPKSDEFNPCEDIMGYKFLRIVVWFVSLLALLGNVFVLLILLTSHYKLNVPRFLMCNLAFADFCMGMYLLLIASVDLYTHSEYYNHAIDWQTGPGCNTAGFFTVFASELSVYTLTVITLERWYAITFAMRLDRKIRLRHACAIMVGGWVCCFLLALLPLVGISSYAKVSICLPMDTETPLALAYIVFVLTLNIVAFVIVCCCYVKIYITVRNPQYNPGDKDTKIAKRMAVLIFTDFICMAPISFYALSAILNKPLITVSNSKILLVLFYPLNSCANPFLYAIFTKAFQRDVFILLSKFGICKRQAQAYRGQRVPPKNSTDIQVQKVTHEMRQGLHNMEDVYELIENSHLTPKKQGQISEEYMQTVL
From the text: as §1, §2

human ADORA1 = target: T2, human ADORA1 (Homo sapiens, UniProt P30542); experiment: PRESTO-Tango β-arrestin recruitment, ADORA1 transfected HTLA cells; type: cell-based; conditions: for RLU: replicates (1)-(4)
T2 sequence (P30542 1-326): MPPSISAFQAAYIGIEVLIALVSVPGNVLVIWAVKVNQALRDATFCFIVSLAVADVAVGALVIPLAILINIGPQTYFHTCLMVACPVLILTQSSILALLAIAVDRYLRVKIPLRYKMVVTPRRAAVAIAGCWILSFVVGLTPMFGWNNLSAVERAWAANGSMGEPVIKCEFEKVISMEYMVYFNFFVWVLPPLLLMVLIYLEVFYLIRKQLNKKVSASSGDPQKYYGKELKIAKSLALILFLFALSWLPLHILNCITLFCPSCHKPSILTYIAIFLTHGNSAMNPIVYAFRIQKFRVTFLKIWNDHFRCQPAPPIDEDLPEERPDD

[1] = Pharmacokinetic study, single 30 mg/kg IP dose, plasma, liver and bone; type: in vivo, mouse; conditions: IP, Time 0.083 h; individual values (1)-(3)
Procedure: The concentration of compound in plasma, liver, and long bones was detected using liquid chromatography tandem mass spectrometry (LC-MS/MS). Samples were collected after a single intraperitoneal (IP) administration at 30 mg/kg, a single intravenous (IV) administration at 3 mg/kg, a single oral (PO) administration at 10 mg/kg, and a daily PO administration for 3 consecutive days at 10 mg/kg. The compound was formulated in 75% PEG300 + 25% of 40% aq. HPBCD for IV and PO administration and in 60% Phosal + 40% PEG300 for IP administration. All tissue samples were homogenized in water at a tissue weight to water volume ratio 1:3.
single dose IP administration. a Plasma, b liver and c bone profiles in female mice.
The actual concentration (ng/g) is the detected value (ng/mL) multiplied by 4. Drug
vehicle is 60% Phosal : 40% PEG300. 3 mice were used per time point. Results are
expressed as the mean ± SEM.

[2] = follow-up test using multiple compound concentrations

With `O=C1Nc2ccc(-c3cc(C(F)(F)F)cc(C(F)(F)F)c3)cc2C(=O)N2CCN(C(=O)COc3ccc(OC(F)(F)F)cc3I)C[C@@H]12` [compound 6641] the “cAMP response through FSHR” value (human FSHR; Hit Hunter cAMP assay) was “did not result in an increase of cAMP level”, the RLU (human FSHR; Log [M] -4.70) was 1000 RLU and 1200 RLU and the RLU (human FSHR; Log [M] -5.18) was 1080 RLU. The RLU (human FSHR; Log [M] -5.65) was 960 RLU and 1040 RLU, the RLU (human FSHR; Log [M] -6.13) was 880 RLU and 920 RLU and the RLU (human FSHR; Log [M] -6.61) was 840 RLU and 960 RLU. For the same compound, the RLU (human FSHR; Log [M] -7.08) was 960 RLU and 1040 RLU, the RLU (human FSHR; Log [M] -7.56) was 1280 RLU and 720 RLU and the RLU (human FSHR; Log [M] -8.04) was 880 RLU and 960 RLU. The RLU (human FSHR; Log [M] -8.52) was 1040 RLU and 1080 RLU, the RLU (human FSHR; Log [M] -8.99) was 720 RLU and 880 RLU and the “cAMP response through TSHR” value (human TSHR; Hit Hunter cAMP assay) was “did not result in an increase of cAMP level”. For the same compound, the RLU (human TSHR; Log [M] -4.70) was 1000 RLU and 1240 RLU, the RLU (human TSHR; Log [M] -5.18) was 1000 RLU and 1040 RLU and the RLU (human TSHR; Log [M] -5.65) was 960 RLU. It also gave an RLU (human TSHR; Log [M] -6.13) of 1040 RLU, an RLU (human TSHR; Log [M] -6.61) of 1200 RLU and an RLU (human TSHR; Log [M] -7.08) of 880 RLU. For the same compound, the RLU (human TSHR; Log [M] -7.56) was 920 RLU and 1000 RLU, the RLU (human TSHR; Log [M] -8.04) was 880 RLU and the RLU (human TSHR; Log [M] -8.52) was 1080 RLU and 920 RLU. For the same compound, the RLU (human TSHR; Log [M] -8.99) was 960 RLU and 1040 RLU, the “β-arrestin recruitment, ADORA1 (mean ± SEM)” value (human ADORA1; 10 µM compound, basal level of detection 3-fold RLU) was 3.92 ± 0.15 fold RLU and the RLU (human ADORA1; Log [M] -4.52) was 12779.2 RLU and 12694.9 RLU. The RLU (human ADORA1; Log [M] -5) was 11730.3 RLU and 10165.7 RLU and 11306.6 RLU, the RLU (human ADORA1; Log [M] -5.52) was 8500.46 RLU and 7004.94 RLU and 7182.3 RLU and 7062.97 RLU and the RLU (human ADORA1; Log [M] -6) was 6700.59 RLU and 4967.56 RLU and 5863.08 RLU and 4072.06 RLU. The RLU (human ADORA1; Log [M] -6.52) was 3400.99 RLU and 2989.38 RLU and 3675.77 RLU and 3380.19 RLU, the RLU (human ADORA1; Log [M] -7) was 3045.21 RLU and 3372.53 RLU and 2679.57 RLU and 3462.3 RLU and the RLU (human ADORA1; Log [M] -7.52) was 2808.75 RLU and 2538.36 RLU and 2762.77 RLU and 2945.59 RLU. The RLU (human ADORA1; Log [M] -8) was 3154.68 RLU and 2602.94 RLU and 3418.51 RLU and 3449.16 RLU, the RLU (human ADORA1; Log [M] -8.52) was 2742.95 RLU and 3614.63 RLU and 3319.34 RLU and 3617.47 RLU and the RLU (human ADORA1; Log [M] -9) was 3242.68 RLU and 2896.28 RLU and 3413.04 RLU and 3315.08 RLU. The RLU (human ADORA1; Log [M] -9.52) was 3821.91 RLU and 2910.47 RLU and 2806.84 RLU and 4087.39 RLU, the RLU (human ADORA1; Log [M] -10) was 2500.19 RLU and 3249.78 RLU and 3509.58 RLU and 3875.86 RLU and the RLU (human ADORA1; Log [M] -10.52) was 3874.43 RLU and 2887.76 RLU and 2717.4 RLU and 3465.57 RLU. The RLU (human ADORA1; Log [M] -11) was 3657.22 RLU and 3613.21 RLU and 3589.08 RLU and 3231.32 RLU, the RLU (human ADORA1; Log [M] -11.52) was 2119.72 RLU and 4131.4 RLU and 3244.1 RLU and 3141.88 RLU and the RLU (human ADORA1; Log [M] -12) was 3765.12 RLU and 3810.55 RLU and 4489.16 RLU and 3752.34 RLU. The “ADORA1 β-arrestin efficacy compared with NECA” value (human ADORA1; [2]) was “much lower efficacy”, the “concentrations at which ADORA1 responded (β-arrestin)” value (human ADORA1; [2]) was “above 1 µM” and the Bone concentration [1] was 307 ng/g and 205 ng/g and 624 ng/g.
